30 compounds from patent US7449447B2, “Peptidomimetic NS3-serine protease inhibitors of hepatitis C virus” (priority 2003, dated 2008) can be followed below.

SMILES strings stand for the structures. pKi: −log10 of the molar value. Where a SMILES comes first, the peptide text is derived from it. [ ]: non-standard residue; d: D form. The star is where a group is joined. Pro(3R,4S-CMe2) = CC1(C)[C@@H]2[C@@H](C(=O)O)NC[C@@H]21; Abu(4,4-F2) = N[C@@H](CC(F)F)C(=O)O; Phg = N[C@H](C(=O)O)c1ccccc1; Tle = CC(C)(C)[C@H](N)C(=O)O; Boc = CC(C)(C)OC(=O)*; βAla = NCCC(=O)O Bounds are passed on as bounds.

In general, pKi refers to the negative decadic logarithm of the Ki, by convention in mol/L.

T1 sequence (P26663 1013-1207, looked up, natural form): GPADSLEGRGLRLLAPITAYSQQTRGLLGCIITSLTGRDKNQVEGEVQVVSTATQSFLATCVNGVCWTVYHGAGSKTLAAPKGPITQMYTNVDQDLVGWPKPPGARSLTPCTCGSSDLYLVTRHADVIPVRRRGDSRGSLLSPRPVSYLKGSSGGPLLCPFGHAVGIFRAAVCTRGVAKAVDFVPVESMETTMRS

One assay has as its target T1, HCV NS3/NS4a serine protease (Hepatitis C virus genotype 1b, UniProt P26663).
T1 construct: amino terminus of the NS3 protease domain (amino acids 3-181) with a tetrapeptide linker; made in house; host or cells: E. coli
Briefly: Spectrophotometric assay for HCV protease inhibitory activity (chromogenic ester substrates). The format is biochemical, hepatitis C virus (strain 1b). Particulars: Ki Rating, Table 2; single chain NS4A21-32-GSGS-NS3 3-181 protease, 30° C., pH 6.5. Here is the method:
Spectrophotometric Assay: Spectrophotometric assays for the HCV serine protease were performed on the inventive compounds by following the procedure described by R. Zhang et al., Analytical Biochemistry, 270 (1999) 268-275, the disclosure of which is incorporated herein by reference. The assay based on the proteolysis of chromogenic ester substrates is suitable for the continuous monitoring of HCV NS3 protease activity.
HCV NS3 protease (strain 1b) and its NS4A cofactor were constructed as a recombinant single chain protein. The NS4A cofactor domain (amino acid residues 21-32) was fused in frame to the amino terminus of the NS3 protease domain (amino acids 3-181) with a tetrapeptide linker. This NS4A 21-32-GSGS-NS33-181 construct was then expressed in E. coli and purified to >90% homogeneity. Kinetic parameters were determined and found to be the same as that of the full length NS31-631/NS4A1-54 protein complex produced in the baculovirus system (D. L. Sali et al, Biochemistry, 37 (1998) 3392-340). The details of the cloning, expression, purification and kinetic analysis of the of the single chain recombinant protease have been previously described (S. S. Taremi, et al. Protein Science. 7 (1998) 2143-2149.
Protein concentrations were determined by the Biorad dye method using recombinant HCV protease standards previously quantified by amino acid analysis. Prior to assay initiation, the enzyme storage buffer (50 mM sodium phosphate pH 8.0, 300 mM NaCl, 10% glycerol, 0.05% lauryl maltoside and 10 mM DTT) was exchanged for the assay buffer (25 mM MOPS pH 6.5, 300 mM NaCl, 10% glycerol, 0.05% lauryl maltoside, 5 μM EDTA and 5 μM DTT) utilizing a Biorad Bio-Spin P-6 prepacked column.
Protease Assay: HCV protease assays were performed at 30° C. using a 200 μl reaction mix in a 96-well microtiter plate. Assay buffer conditions (25 mM MOPS pH 6.5, 300 mM NaCl, 10% glycerol, 0.05% lauryl maltoside, 5 μM EDTA and 5 μM DTT) were optimized for the NS3/NS4A heterodimer (D. L. Sali et al, ibid.)). Typically, 100 μl mixtures of buffer, substrate and inhibitor were placed in wells and allowed to preincubate at 30° C. for approximately 3 minutes. One hundred μls of pre-warmed protease (30° C.) in assay buffer, was then used to initiate the reaction to produce a final concentration of 1.3 nM HCV). The Substrate cleavage by the protease was monitored over 60 minutes by measuring the release of the phenylazophenol (PAP) product at an absorbance of 370 nm with a continuous read every 30 seconds using a SpectraMax Plus microtiter plate reader (Molecular Devices, Sunnyvale, Calif.). Background hydrolysis of the substrate was subtracted. Inhibitors were tested over a range of concentrations (final DMSO concentration 4%)
Evaluation of Inhibitors The inhibition constants (Ki) for the competitive inhibitors were determined experimentally at fixed concentrations of enzyme and substrate by plotting vo/vi vs. inhibitor concentration ([I]o) according to the rearranged Michaelis-Menten equation for competitive inhibition kinetics: vo/vi=1+[I]o/(Ki(1+[S]o/Km)), where vo is the uninhibited initial velocity, vi is the initial velocity in the presence of inhibitor at any given inhibitor concentration ([I]o) and [S]o is the substrate concentration used. The resulting data were fitted using linear regression and the resulting slope, 1/(Ki(1+[S]o/Km), was used to calculate the Ki value.
On to `CCOC(=O)CCNC(=O)[C@H](CC(F)F)NC(=O)[C@@H]1[C@@H]2[C@H](CN1C(=O)[C@@H](NC(=O)OC(C)(C)C)C(C)(C)C)C2(C)C` [Example 163], for which the pKi was less than 6.30. The same measure, in the same setting: under `CC(C)[C@H](NC(=O)N[C@H](C(=O)N1C[C@H]2[C@@H]([C@H]1C(=O)N[C@@H](CC(F)F)C(=O)NCCC(=O)O)C2(C)C)C(C)(C)C)C(=O)O` [Example 160] stands less than 6.30.

As to `CC(C)[C@H](NC(=O)N[C@H](C(=O)N1C[C@H]2[C@@H]([C@H]1C(=O)NC(CC(F)F)C(=O)NCCc1ccc(C(=O)O)cc1)C2(C)C)C(C)(C)C)C(=O)O` (stereo partly drawn) [Example 146], the pKi was less than 6.30.

Take `COC(=O)c1ccc(CCNC(=O)[C@H](CC(F)F)NC(=O)[C@@H]2[C@@H]3[C@H](CN2C(=O)[C@@H](NC(=O)N[C@H](C(=O)OC(C)(C)C)C(C)(C)C)C(C)(C)C)C3(C)C)cc1` [Example 139]: the pKi was 6.30 to 7.00. Same read-out and setting: to `CN(C)C(=O)[C@@H](NC(=O)CCNC(=O)[C@H](CC(F)F)NC(=O)[C@@H]1[C@@H]2[C@H](CN1C(=O)[C@@H](NC(=O)OC(C)(C)C)C(C)(C)C)C2(C)C)c1ccccc1` [Example 168] (Boc-[Tle][Pro(3R,4S-CMe2)][Abu(4,4-F2)][βAla][Phg]-NMe2) belongs less than 6.30; to `COC(=O)c1ccc(CCNC(=O)[C@H](CC(F)F)NC(=O)[C@@H]2[C@@H]3[C@H](CN2C(=O)[C@@H](NC(=O)N[C@H](CNS(=O)(=O)c2ccccc2)C(C)C)C(C)(C)C)C3(C)C)cc1` [Example 130], 6.30 to 7.00; to `COC(=O)c1ccc(CCNC(=O)[C@H](CC(F)F)NC(=O)[C@@H]2[C@H]3CC(C)(C)O[C@H]3CN2C(=O)[C@@H](NC(=O)OCc2ccccc2)C2CCCCC2)cc1` [Example 173], less than 6.30. The same measure, in the same setting: to `CC(C)(C)OC(=O)[C@@H](NC(=O)N[C@H](C(=O)N1C[C@H]2[C@@H]([C@H]1C(=O)N[C@@H](CC(F)F)C(=O)NCCc1ccc(C(=O)O)cc1)C2(C)C)C(C)(C)C)C(C)(C)C` [Example 127] belongs 6.30 to 7.00.

The same assay, now with this note: Ki, Table 1; single chain NS4A21-32-GSGS-NS3 3-181 protease, 30° C., pH 6.5.
For the compound `CC(C)(C)[C@H](NC(=O)N[C@H](C(=O)N1C[C@H]2[C@@H]([C@H]1C(=O)N[C@@H](CC(F)F)C(=O)NCCc1ccc(C(=O)O)cc1)C2(C)C)C(C)(C)C)C(=O)O` [Example 114], the pKi is 7.05. On the same count and under the same terms, under `CC(C)(C)[C@H](NC(=O)N[C@H](CN1CCCS1(=O)=O)C(C)(C)C)C(=O)N1C[C@H]2[C@@H](C1C(=O)NC(CC(F)F)C(=O)NCCc1ccc(C(N)=O)cc1Cl)C2(C)C` (stereo partly drawn) [Example 111] stands 7.38.

The same assay, now with this note: Ki, Table 3; rating; single chain NS4A21-32-GSGS-NS3 3-181 protease, 30° C., pH 6.5.
Regarding `CN(C[C@@H](NC(=O)N[C@H](C(=O)N1C[C@H]2[C@@H]([C@H]1C(=O)N[C@@H](CC(F)F)C(=O)NCCc1ccccc1)C2(C)C)C(C)(C)C)C(C)(C)C)S(C)(=O)=O` [Example 258], the pKi was more than 7.00. The same measure, in the same setting: under `COc1ccccc1CNC(=O)[C@H](CC(F)F)NC(=O)[C@@H]1[C@@H]2[C@H](CN1C(=O)[C@@H](NC(=O)N[C@H](CN(C)S(C)(=O)=O)C(C)(C)C)C(C)(C)C)C2(C)C` [Example 222] stands less than 6.30; under `CN(C[C@@H](NC(=O)N[C@H](C(=O)N1C[C@H]2[C@@H]([C@H]1C(=O)N[C@@H](CC(F)F)C(=O)NCC1CCCCC1)C2(C)C)C(C)(C)C)C(C)(C)C)S(C)(=O)=O` [Example 213], less than 6.30; under `CN(C[C@@H](NC(=O)N[C@H](C(=O)N1C[C@H]2[C@@H]([C@H]1C(=O)N[C@@H](CC(F)F)C(=O)NCCCN1CCCC1=O)C2(C)C)C(C)(C)C)C(C)(C)C)S(C)(=O)=O` [Example 223], less than 6.30.

For the compound `CN(C[C@@H](NC(=O)N[C@H](C(=O)N1C[C@H]2[C@@H]([C@H]1C(=O)N[C@@H](CC(F)F)C(=O)NC1CC1)C2(C)C)C(C)(C)C)C(C)(C)C)S(C)(=O)=O` [Example 203], the pKi is less than 6.30. As for `CN(C[C@@H](NC(=O)N[C@H](C(=O)N1C[C@H]2[C@@H]([C@H]1C(=O)N[C@@H](CC(F)F)C(=O)NCCc1c[nH]cn1)C2(C)C)C(C)(C)C)C(C)(C)C)S(C)(=O)=O` [Example 244], the pKi was less than 6.30. Still for that read-out and setting: to `CN(C[C@@H](NC(=O)N[C@H](C(=O)N1C[C@H]2[C@@H]([C@H]1C(=O)N[C@@H](CC(F)F)C(=O)NCCc1ccc(Br)cc1)C2(C)C)C(C)(C)C)C(C)(C)C)S(C)(=O)=O` [Example 290] belongs more than 7.00. Still for that read-out and setting: to `CN(C[C@@H](NC(=O)N[C@H](C(=O)N1C[C@H]2[C@@H]([C@H]1C(=O)N[C@@H](CC(F)F)C(=O)NCCC#N)C2(C)C)C(C)(C)C)C(C)(C)C)S(C)(=O)=O` [Example 204] belongs less than 6.30; to `CN(C[C@@H](NC(=O)N[C@H](C(=O)N1C[C@H]2[C@@H]([C@H]1C(=O)N[C@@H](CC(F)F)C(=O)NCCCn1cccc1)C2(C)C)C(C)(C)C)C(C)(C)C)S(C)(=O)=O` [Example 238], less than 6.30. Same read-out and setting: to `CN(C[C@@H](NC(=O)N[C@H](C(=O)N1C[C@H]2[C@@H]([C@H]1C(=O)N[C@@H](CC(F)F)C(=O)NCCc1ccc(Oc3ccccc3)cc1)C2(C)C)C(C)(C)C)C(C)(C)C)S(C)(=O)=O` [Example 291] belongs more than 7.00; to `CC(C)CCNC(=O)[C@H](CC(F)F)NC(=O)[C@@H]1[C@@H]2[C@H](CN1C(=O)[C@@H](NC(=O)N[C@H](CN(C)S(C)(=O)=O)C(C)(C)C)C(C)(C)C)C2(C)C` [Example 208], less than 6.30; to `CN(C[C@@H](NC(=O)N[C@H](C(=O)N1C[C@H]2[C@@H]([C@H]1C(=O)N[C@@H](CC(F)F)C(=O)NCc1cccs1)C2(C)C)C(C)(C)C)C(C)(C)C)S(C)(=O)=O` [Example 212], less than 6.30. With `CN(C[C@@H](NC(=O)N[C@H](C(=O)N1C[C@H]2[C@@H]([C@H]1C(=O)N[C@@H](CC(F)F)C(=O)NCC(C)(C)C)C2(C)C)C(C)(C)C)C(C)(C)C)S(C)(=O)=O` [Example 209], the pKi was less than 6.30.

Turning to `CN(C[C@@H](NC(=O)N[C@H](C(=O)N1C[C@H]2[C@@H]([C@H]1C(=O)N[C@@H](CC(F)F)C(=O)NCCc1cccc(Cl)c1)C2(C)C)C(C)(C)C)C(C)(C)C)S(C)(=O)=O` [Example 202], the pKi was more than 7.00. The same measure, in the same setting: to `CN(C[C@@H](NC(=O)N[C@H](C(=O)N1C[C@H]2[C@@H]([C@H]1C(=O)N[C@@H](CC(F)F)C(=O)NCCc1ccccc1Cl)C2(C)C)C(C)(C)C)C(C)(C)C)S(C)(=O)=O` [Example 251] belongs more than 7.00. As for `COc1ccc(Br)cc1CCNC(=O)[C@H](CC(F)F)NC(=O)[C@@H]1[C@@H]2[C@H](CN1C(=O)[C@@H](NC(=O)N[C@H](CN(C)S(C)(=O)=O)C(C)(C)C)C(C)(C)C)C2(C)C` [Example 300], the pKi is more than 7.00. For the compound `CN(C[C@@H](NC(=O)N[C@H](C(=O)N1C[C@H]2[C@@H]([C@H]1C(=O)N[C@@H](CC(F)F)C(=O)NCCC(c1ccccc1)c1ccccc1)C2(C)C)C(C)(C)C)C(C)(C)C)S(C)(=O)=O` [Example 229], the negative logarithm of the Ki (pKi) is less than 6.30. As for `CN(C[C@@H](NC(=O)N[C@H](C(=O)N1C[C@H]2[C@@H]([C@H]1C(=O)N[C@@H](CC(F)F)C(=O)NCCc1c[nH]c3ccccc13)C2(C)C)C(C)(C)C)C(C)(C)C)S(C)(=O)=O` [Example 252], the pKi was more than 7.00. On the same count and under the same terms, to `COc1cccc(CCNC(=O)[C@H](CC(F)F)NC(=O)[C@@H]2[C@@H]3[C@H](CN2C(=O)[C@@H](NC(=O)N[C@H](CN(C)S(C)(=O)=O)C(C)(C)C)C(C)(C)C)C3(C)C)c1OC` [Example 277] belongs 6.30 to 7.00.

Staying with this assay, now noted: read-out: Ki Rating; Table 2; single chain NS4A21-32-GSGS-NS3 3-181 protease, 30° C., pH 6.5.
On to `COC(=O)c1ccc(CCNC(=O)[C@H](CC(F)F)NC(=O)[C@@H]2[C@@H]3[C@H](CN2C(=O)[C@@H](NC(=O)N[C@H](C(=O)OC(C)(C)C)C(C)C)C(C)(C)C)C3(C)C)cc1` [Example 137], for which the negative logarithm of the Ki (pKi) is 6.30 to 7.00.
